Measurements published in patent publication US11266675B2, “Methods of treatment of viral infection and uses of anti-HSC70 inhibitors” (priority 2018, dated 2022).

Key:
EV-A71 [1] = test: Extracellular viral RNA / virus yield in supernatant by qRT-PCR; format: cell-based, Enterovirus A71 (SHZH98 strain); details: RD cells; for Virus yield in the supernatants vs scrambled control: siRNA 48 hours, EV-A71 MOI of 10, nine hours p.i.
Experimental: (§1) Total RNA was extracted from cell lysis using TRIzol reagent (Ambion, Life Technologies). Quantitative Real-time PCR (qRT-PCR) was performed using SYBR Green Mix (Life Technologies) on applied Biosystems StepOne real-time PCR system. The comparative ΔΔCt method was used to calculate the relative expression of microRNA or mRNA normalized to β-actin mRNA.
(§2) The mRNA level of Hsc70 was detected by qRT-PCR and the protein level was detected by western blotting. […] The extracellular virus levels were detected by qRT-PCR. […] The viral titer in the supernatant was determined by TCID50 assay.
To address the drug target potential of Hsc70 against EV-A71, experiments were conducted to examine if Ver-155008, a chemical inhibitor of Hsc70, could protect cells from EV-A71 infection. In this regard, RD cells were pre-treated for 2 hours with Ver-155008, then infected the cells with EV-A71 for another 9 hours at an MOI of 10.
In FIG. 5A, cell images under light microscope. In FIG. 5B, proteins levels of VP0/2 by western blot are shown. In FIG. 5C, EV-A71 IRES activity detected by luciferase activities are shown. (n=3; ***, p<0.001). In FIG. 5D, there is shown the extracellular viral RNA levels were examined by qRT-PCR.

EV-A71 [2] = test: 2Apro-regulated viral protein production in HEK 293T cells, western blot (VP0/2 antibody); format: cell-based, Enterovirus A71 (SHZH98 strain); details: si-Hsc70 then 2Apro expression plasmid, EV-A71 MOI of 5 for 9 hours
Experimental: (§3) Total protein was extracted from cell lysis in RIPA buffer with protease inhibitor and phosphatase Inhibitor (Roche). A total of 10-30 μg protein was loaded for SDS-PAGE and transferred onto PVDF membranes. Membranes were blocked with 5% non-fat milk in Tris-buffered saline buffer with 0.1% Tween-20 (TBST) for 1 hour at room temperature and incubated with primary antibodies overnight at 4° C. After washing with TBST three times, the membranes were incubated with the corresponding horseradish peroxidase (HRP)-conjugated secondary antibodies for 1 hour at room temperature. The Hsc70 protein level was detected using an Hsc70-specific antibody (sc-13132, Santa Cruz Biotechnology, USA). The band density was quantified using Quantity One software (Bio-Rad). GADPH served as loading control. The western blotting was carried out in three times for confirmation of results.
In FIG. 4A, HEK 293T cells were co-transfected with pHsc70, pIRES reporter plasmid and 2A^pro-expressing plasmid or empty vector for forty-eight hours, then the reporter activity was measured. In FIG. 4B, HEK 293T cell extract was incubated with the His-tagged 2A^pro, pulled down and then analyzed by western blotting. […] The cleavage products were assessed by immunoblotting. […] The viral protein production was detected by western blotting by using VP0/2 antibody (n=3).

EV-A71 [3] = test: Intracellular viral RNA (positive and negative strand) by qRT-PCR; format: cell-based, Enterovirus A71 (SHZH98 strain); details: RD cells
Experimental: as §1, §2

EV-A71 viral protein VP1 = test: Western blot of viral protein in infected RD cells; format: cell-based, Enterovirus A71 (SHZH98 strain)
Experimental: as §3
The mRNA level of Hsc70 was detected by qRT-PCR and the protein level was detected by western blotting. […] The extracellular virus levels were detected by qRT-PCR. […] The viral titer in the supernatant was determined by TCID50 assay. […]
(§4) In FIG. 5A, cell images under light microscope. […] In FIG. 5C, EV-A71 IRES activity detected by luciferase activities are shown. […]

EV-A71 [4] = test: Viral titer in supernatant by TCID50 assay; format: cell-based, Enterovirus A71 (SHZH98 strain); details: RD cells, siRNA 48 hours, EV-A71 9 hours, culture media
Experimental: (§5) Human rhabdomyosarcoma (RD) cells were purchased from ATCC (CCL-136). The Dulbecco's modified Eagle's medium (DMEM) with 10% fetal bovine serum (FBS) were used for cell culture, supplemented with 100 U/ml penicillin and 100 μg/ml streptomycin Propagation of EV-A71 (SHZH98 strain, accession number AF302996) was the same as previous report. The viral titer was measured by TCID50 assays.
as §2

EV-A71 [5] = test: Cytopathic effect (CPE) assay; format: cell-based, Enterovirus A71 (SHZH98 strain)
Experimental: as §5
CPE assay was used to test the antiviral effect of Ver-155008. Ver-155008 was from Selleckchem (Cat. No. S7751). RD cells were seed in 96-well plate at 37° C. overnight, was then treated with indicated concentration of Ver-155008. […] CPE was monitored and recorded from time to time under a phase-contrast microscope. The concentration required to reduce the EV-A71-induced CPE by 50% (IC50) was determined by using the nonlinear regression analysis of SPSS 17.0. Data were shown as mean values with standard deviations from three independent assays. Selectivity index (SI) is calculated by the ratio of CC50 to IC50.

EV-A71 IRES = test: Dual-luciferase IRES reporter assay; format: cell-based; details: Ver-155008 treatment
Text: Human Hsc70 (Accession NM_006597) was purchased from Addgene (Cat. No. 19541). The EV-A71 report plasmid pIRES was constructed as previously described. In detail, the EV-A71 reportor plasmid pIRES was constructed as follows: Renilla Luciferase gene (RLuc) was inserted into pcDNA4/HisMax B between BamHI and EcoRV sites; EV-A71 IRES was amplified from EV-A71 virus strain (SHZH98). Firefly Luciferase gene (FLuc) was amplified by using primer which has overlap sequence with the C-terminal of EV-A71 IRES. Finally, the construct IRES-FLuc were then amplified by using overlap PCR, and inserted into the downstream of the Renilla Luciferase gene between EcoRV and XbarI sites. […]
HEK 293T cells were seeded into a 24-well plate and incubated at 37° C. overnight and then transfected with Hsc70 expression plasmid (pHsc70) or siRNA. […] The activity of RLuc and FLuc were assessed by bioluminometer using a dual-luciferase reporter assay (Promega) according to the manufacturer.
FIG. 3A is concerned with 293T cells were co-transfected with si-Hsc70 and IRES reporter plasmid for forty-eight hours. […] Proteins which interact with the RNAs were detected by immunoblotting with specific antibody. […]
as §4

RD cells = test: Cell viability assay (MTT); format: cell-based, Human; details: serial dilution of Ver-155008 for 24 hours
Experimental: RD cells were seeded in 96-well plates (5,000 cells/well) and treated with serial dilution of Ver-155008 for 24 hours for cell viability assay. Ten μL of MTT was added to cultured cells in 100 μl culture medium and incubated at 37° C. for 4 h. Subsequently 100 μl of Dimethyl Sulfoxide were added. The optical density was measured at a wavelength of 570 nm. The cell viability assay was carried out in triplicates by three independent experiments as previously described.

| Compound | Virus yield in the supernatants vs scrambled control (EV-A71 [1]) | 2Apro-elicited production of viral protein after knockdown of Hsc70 (EV-A71 [2]) | Decrease of negative strand viral RNA level (EV-A71 [3]; EV-A71 MOI of 10, 3 hours p.i.) | Decrease of positive strand viral RNA level (EV-A71 [3]; EV-A71 MOI of 10, 3 hours p.i.) | Decrease of negative strand viral RNA level (EV-A71 [3]; EV-A71 MOI of 10, 6 hours p.i.) | Decrease of positive strand viral RNA level (EV-A71 [3]; EV-A71 MOI of 10, 6 hours p.i.) | Decrease of negative strand viral RNA level (EV-A71 [3]; EV-A71 MOI of 10, 9 hours p.i.) | Decrease of positive strand viral RNA level (EV-A71 [3]; EV-A71 MOI of 10, 9 hours p.i.) | Inhibitory effect on viral RNA levels (EV-A71 [3]; EV-A71 MOI of 10, 12 hours p.i.) | EV-A71 viral protein VP1 (western blot) vs control cells (EV-A71 viral protein VP1; RD cells with Hsc70 knockdown, EV-A71 MOI of 10) | Decrease of virus titer vs scramble siRNA control (TCID50) (EV-A71 [4]) | IC50 (EV-A71 [5]; RD cells infected with EV-A71 at MOI of 0.01, read-out: Antiviral activity IC50 (concentration reducing EV-A71-induced CPE by 50%)) | Cytopathic effect (CPE) (EV-A71 [5]; RD cells, 8 μM, 2 h pre-treatment, EV-A71 MOI of 10 for 9 hours) | Selective Index SI (CC50/IC50) (EV-A71 [5]; RD cells, EV-A71) | EV-A71 IRES activity (luciferase) (EV-A71 IRES) | Decrease of secreted virions (extracellular viral RNA, qRT-PCR) (EV-A71 [1]; 8 μM, EV-A71 MOI of 10, 9 hours) | Viral VP1 levels (western blot) (EV-A71 viral protein VP1; RD cells pre-treated 2 hours with Ver-155008, EV-A71 MOI of 10, 9 hours) | CC50 (RD cells; read-out: Cytotoxity CC50) | CC90 (RD cells; read-out: Cytotoxity CC90) |
| --- | --- | --- | --- | --- | --- | --- | --- | --- | --- | --- | --- | --- | --- | --- | --- | --- | --- | --- | --- |
| 5′-CCUAAAUUCGUAGCAAAUU-3′ (SEQ ID NO: 2) (other siRNA strand not cited, further chemistry not given here) [si-Hsc70-2, small interfering RNA targeting human Hsc70 (NM_006597), synthesized from Genepharma] | obviously decreased | – | – | – | – | – | – | – | – | – | – | – | – | – | – | – | – | – | – |
| 5′-UAAUUCUAAGUACAUUGAGACCAGC-3′ (SEQ ID NO: 1) (other siRNA strand not cited, further chemistry not given here) [si-Hsc70-1, small interfering RNA targeting human Hsc70 (NM_006597), synthesized from Genepharma] | obviously decreased | failed to elicit the production of viral protein | about 86% | about 86% | about 70% | about 70% | about 70% | about 70% | still significant | significantly decreased | more than 10 times | – | – | – | – | – | – | – | – |
| N#Cc1ccc(COC[C@H]2O[C@@H](n3c(NCc4ccc(Cl)c(Cl)c4)nc4c(N)ncnc43)[C@H](O)[C@@H]2O)cc1 [Ver-155008] | – | – | – | – | – | – | – | – | – | – | – | 2.01 µM | nearly no obvious cytopathic effect | 23.71 | declined in a dose-dependent manner | 55% | obviously repressed by Ver-155008 in a dose dependent manner | 47.7 µM | 91.9 ± 0.94 µM |
